Results published in patent publication US11085053B2, “Efficient selectivity of recombinant proteins” (REGENERON PHARMACEUTICALS, INC., priority 2014, dated 2021).

Tested on: Modified CHO K1 cells
Assay: Selection efficiency of transfectant cells by FACS (GFP+ population)
Type: cell-based, Chinese hamster
Source text: Modified CHO K1 cells were transfected with a plasmid vector containing CHO-GPT (SEQ ID NO: 2), human GPT (SEQ ID NO:12) or a plasmid vector containing a hygromycin phosphotransferase (Hpt, Hygromycin resistant gene); e.g. the selectable marker gene (CHO-GPT or hpt) was transcriptionally linked to a downstream eGFP gene via an IRES sequence, in their respective vectors. For example, each plasmid was constructed to contain the following gene sequences, in 5′ to 3′ direction: a Lox site, a SV40 late promoter, either CHO-GPT (or Hpt), IRES, enhanced green fluorescent protein (eGFP), and a second Lox site. Purified recombinant plasmids were transfected together with a plasmid that expresses Cre recombinase, into a modified CHO host cell line containing: from 5′ to 3′, a lox site, YFP, and a second lox site, at a transcriptionally active locus. Consequently, the host CHO cell can be isolated by flow cytometry as a green-positive or a yellow-negative cell. […]
Cell populations were either incubated with 0, 1 μg/ml, 2.5 μg/ml or 5 μg/ml tunicamycin (Tn) or 400 μg hygromycin (Hyg), as outlined in Table 2. Observed recombinant populations (ORPs) were measured by fluorescent-activated cell sorting (FACS) analysis. Cells were sorted to quantitate each population of cells, and selection efficiency was calculated for cells expressing only GFP and not YFP (FIG. 4 or 5). […]

Substance: tunicamycin
- Selection efficiency compared with hygromycin selection: as efficient as hygromycin selection
